Measurements reported in PMC11675283, “Anticholinesterase Activity and Bioactive Compound Profiling of Six Hop (Humulus lupulus L.) Varieties” (Foods, 2024).
Converted amounts (≈) assume the structure as drawn.

Molecular target: T1, tyrosinase from mushrooms
T1 construct: gene PPO3; commercial native mushroom tyrosinase (Sigma-Aldrich), isoenzyme mixture
Assay: colorimetric diphenolase assay, absorbance at […] nm
Format: biochemical
Conditions: L-DOPA substrate

`O=C(O)CCCCCCCC(=O)O` [azelaic acid] was tested, and the IC50 was 1470 µg/mL (≈ 7.81 mM).
